Results as given in patent publication US20200255828A1, “METHODS AND COMPOSITIONS FOR ALTERING FUNCTION AND STRUCTURE OF CHROMATIN LOOPS AND/OR DOMAINS” (THE BROAD INSTITUTE, INC., priority 2017, published 2020).

Key:
RAD21-mAC cells = experiment: Gene expression changes between untagged HCT-116 cells and auxin-treated RAD21-mAC cells; type: cell-based; conditions: auxin-treated RAD21-mAC cells compared with untagged HCT-116 cells
From the text: To our surprise, Applicants only identified 68 cell type specific loops (compared to […] each per pair of cell types in Rao et al 2014). In order to increase statistical power, Applicants identified 518 loops that had been called in one of our cell types in Rao et al 2014 (HMEC, IMR90, K562, HUVEC, HeLa, NHEK) but not in GM12878, or vice versa and had been associated with 10-fold upregulation of a gene whose promoter lay at the loop anchor. Applicants sought to then identify cases where these loop-gene pairs were present in HCT-116 to then examine the results of loop loss. However, only 15 of the 518 loops were conserved in HCT-116. […] Alternatively, it is possible that the tagging of cohesin and resulting potential loss of stability results in preferential loss of cell type specific loops. […] In fact, it may be the case that some other regulatory event catalyzes both loop formation and gene activation, or that gene activation itself enables loop formation.

HCT-116 RAD21-mAC cells = experiment: In situ Hi-C: contact domains and genome compartmentalization (Arrowhead corner score, eigenvector, sliding correlation score); type: cell-based, human
From the text: Domains were annotated in both untreated and treated maps using Arrowhead (Durand et al., 2016b; Rao et al., 2014). Domains were called at 5 kb and 10 kb resolutions using default parameters and merged (retaining the 5 kb domain annotation for any pair of domains annotated in both the 5 kb and 10 kb annotations). Applicants annotated 9,845 domains in our untreated maps and 2,090 domains in our treated maps.
The most common method used for classifying Hi-C patterns is the principal component (PC) approach, which Applicants introduced in (Lieberman-Aiden et al., 2009). In this approach, each intrachromosomal contact matrix is converted to an observed/expected matrix, and the first principal component of this matrix is used to bifurcate the data into two clusters.
Applicants first calculated the first three principal components of the 25-kb resolution observed/expected matrix for each chromosome (constructed using Juicer) using scikit learn's RandomizedPCA function. Applicants chose the principal component most correlated with GC content and assigned sign such that the vector was positively correlated with the GC content vector. Applicants then calculated the correlation of the eigenvector for each chromosome between untreated and treated maps. The mean correlation was 0.968.
To identify transitions in compartment state at higher resolution, Applicants used a combination of techniques. First, Applicants calculated an edge score using an algorithm similar to Canny edge detection. For every 25 kb locus in the genome, Applicants looked at the corresponding column of the 25 kb log 2(observed/expected) matrix. For every pixel (i,j) in column j, Applicants calculated a gradient=[i,j:j+3]−[i,j−4,j−1]. Applicants then searched for stretches of at least 7 pixels in the column with a gradient x such that abs(x) was greater than 0.5. […] Finally, Applicants summed the number of pixels in a column belonging to an edge to calculate the edge score for a locus. Applicants then called local peaks in this track which could correspond to compartment state transitions since a compartment state transition at locus I will create an edge between locus i−1 and i.
As described in Section V.a.3 of Rao et al., 2014, this is akin to measures in finance that correlate returns of prices to identify similarities between stocks. To calculate this sliding derivative correlation score, Applicants calculated the gradient in the log 2(observed/expected) matrix over every boundary called in our edge score track. More specifically, for every locus i, and all boundaries j in boundary set J that were within 15 Mb of i, Applicants calculated the difference of mean ([j:j+5,i]) and mean ([j−6:j−1,i]). Applicants then calculated the Spearman correlation coefficient of these two vectors (one vector for the gradients at all boundaries j in J for the pixels upstream of i, and one vector for the pixels downstream of i). Applicants excluded the derivative signal at pixels not located at compartment state transitions as defined by the edge score to reduce noise, reasoning that pixels inside compartment intervals were unlikely to contribute meaningful rises/falls in contact probability. Similarly, Applicants only included pixels within 15 mb of i to reduce the noise arising from sparsity far off the diagonal.
Applicants then identified compartment boundaries by calling local peaks in the edge score track and local valleys in the sliding derivative correlation score track and merging the two peak call lists.
To assess the presence and strength of contact domains after auxin treatment, Applicants used the Arrowhead algorithm (Durand et al., 2016b; Rao et al., 2014). The Arrowhead algorithm calculates a corner score for every pixel, where higher corner score values represent a higher likelihood that a pixel is at the corner of a domain (see Section IV. a.3 of the Extended Experimental Procedures of Rao et al., 2014). […]

## O=C(O)Cc1c[nH]c2ccccc12 [auxin, indole-3-acetic acid]
RAD21-mAC cells
  genes with a greater than 5-fold change in expression: 3
HCT-116 RAD21-mAC cells; 209 transitions, untreated 0.01 increase
  dip in sliding correlation in treated cells, H3K27me3 transitions spanned by loop domains: 0.03
HCT-116 RAD21-mAC cells; 264 transitions, untreated 0.02
  dip in sliding correlation in treated cells, H3K27Ac transitions spanned by loop domains: 0.19
HCT-116 RAD21-mAC cells; 307 transitions, untreated 0.41
  dip in sliding correlation in treated cells, H3K27Ac transitions at loop domain boundaries: 0.49
HCT-116 RAD21-mAC cells; 349 boundaries, untreated 0.10
  decrease in sliding correlation score in treated cells, compartment boundaries contained within loop domains: 0.31
HCT-116 RAD21-mAC cells; 381 transitions, untreated 0.10
  decrease in sliding correlation score in treated cells, H3K27Ac transitions at loop anchors: 0.26
HCT-116 RAD21-mAC cells; 384 transitions, untreated 0.29
  dip in sliding correlation in treated cells, H3K27me3 transitions at loop domain boundaries: 0.33
HCT-116 RAD21-mAC cells; 389 boundaries, untreated 0.35
  decrease in sliding correlation score in treated cells, compartment boundaries at loop domain anchors: 0.53
HCT-116 RAD21-mAC cells; 391 transitions, untreated 0.27
  decrease in sliding correlation score in treated cells, H3K27me3 transitions spanned by loops: 0.31
HCT-116 RAD21-mAC cells; 426 transitions, untreated 0.41
  decrease in sliding correlation score in treated cells, H3K27Ac transitions spanned by loops: 0.50
HCT-116 RAD21-mAC cells; 469 transitions, untreated 0.03
  decrease in sliding correlation score in treated cells, H3K27me3 transitions at loop anchors: 0.12
HCT-116 RAD21-mAC cells; across all chromosomes
  mean Pearson's r of Hi-C correlation map eigenvectors, untreated vs auxin treated: 0.968
